The target in test [1] is T1, NURR-1/RXRγ (Homo sapiens, UniProt P48443).
T1 construct: expressed in transfected cells; host or cells: Cos-7 cells
The test can be described thus: Transactivation test, NURR-1-Gal4/RXRγ, luciferase reporter in Cos-7 cells. The format is cell-based. The note with it: for Emax: COS-7, induction level relative to reference XCT0135908 at 2×10^−5 M (=100%), read-out: hNurr1_RXRgFL Emax (%); for EC50: Cos-7 cells, NURR-1-Gal4/RXRγ, luciferase reporter, read-out: hNurr1_RXRgFL EC50. On the technique in general: Reporter assays use an easily measured gene product as a stand-in for the process of interest.

In test [2] the target is T2, NURR-1/RXRα (Homo sapiens, UniProt P19793).
T2 construct: expressed in transfected cells; host or cells: Cos-7 cells
The test can be described thus: Transactivation test, NURR-1-Gal4/RXRα, luciferase reporter in Cos-7 cells. The test is classed as cell-based. The note with it: for Emax: COS-7, induction level relative to reference XCT0135908 at 2×10^−5 M (=100%), read-out: hNurr1_RXRaFL Emax (%); for EC50: Cos-7 cells, NURR-1-Gal4/RXRα, luciferase reporter, read-out: hNurr1_RXRaFL EC50.

The record followed here is US20170066717A1, “NEW PHENYLAZETIDINECARBOXYLATE OR -CARBOXAMIDE COMPOUNDS” (INVENTIVA, priority 2014, published 2017).

Where only a bound is given, the exact number is not on record here.

T1 sequence (P48443 whole entry): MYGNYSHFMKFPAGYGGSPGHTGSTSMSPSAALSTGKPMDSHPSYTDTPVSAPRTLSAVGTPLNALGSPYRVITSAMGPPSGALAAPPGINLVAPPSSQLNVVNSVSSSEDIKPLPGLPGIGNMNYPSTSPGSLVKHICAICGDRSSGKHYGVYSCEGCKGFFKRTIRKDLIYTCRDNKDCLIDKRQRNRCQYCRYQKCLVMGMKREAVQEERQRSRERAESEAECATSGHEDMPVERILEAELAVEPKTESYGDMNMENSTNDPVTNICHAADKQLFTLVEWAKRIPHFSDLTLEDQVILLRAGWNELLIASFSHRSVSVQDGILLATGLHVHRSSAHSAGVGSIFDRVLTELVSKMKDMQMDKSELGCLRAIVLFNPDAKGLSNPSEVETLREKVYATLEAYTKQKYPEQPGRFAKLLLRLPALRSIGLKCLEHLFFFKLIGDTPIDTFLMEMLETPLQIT
T1 sequence (P43354 whole entry partner): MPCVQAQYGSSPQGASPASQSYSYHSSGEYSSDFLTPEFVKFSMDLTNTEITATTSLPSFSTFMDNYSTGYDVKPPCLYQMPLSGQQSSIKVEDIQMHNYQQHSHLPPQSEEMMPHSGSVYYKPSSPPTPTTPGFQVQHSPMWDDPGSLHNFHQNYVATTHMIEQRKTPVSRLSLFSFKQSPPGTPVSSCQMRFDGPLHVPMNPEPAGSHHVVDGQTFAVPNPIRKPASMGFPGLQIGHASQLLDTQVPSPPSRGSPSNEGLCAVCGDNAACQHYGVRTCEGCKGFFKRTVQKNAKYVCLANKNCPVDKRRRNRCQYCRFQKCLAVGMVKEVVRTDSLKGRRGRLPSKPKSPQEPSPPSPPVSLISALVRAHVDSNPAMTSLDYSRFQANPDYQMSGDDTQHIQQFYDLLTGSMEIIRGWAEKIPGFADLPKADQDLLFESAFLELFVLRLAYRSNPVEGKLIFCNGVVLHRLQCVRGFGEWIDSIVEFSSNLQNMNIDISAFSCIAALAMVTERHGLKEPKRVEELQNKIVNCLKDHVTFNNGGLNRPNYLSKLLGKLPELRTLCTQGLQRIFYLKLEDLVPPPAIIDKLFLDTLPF
T1 sequence (P04386 1-147 partner limits assumed): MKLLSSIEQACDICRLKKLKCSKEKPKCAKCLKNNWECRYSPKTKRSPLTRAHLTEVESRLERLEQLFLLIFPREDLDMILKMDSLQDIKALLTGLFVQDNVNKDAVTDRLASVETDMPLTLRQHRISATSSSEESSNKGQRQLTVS
T2 sequence (P19793 whole entry): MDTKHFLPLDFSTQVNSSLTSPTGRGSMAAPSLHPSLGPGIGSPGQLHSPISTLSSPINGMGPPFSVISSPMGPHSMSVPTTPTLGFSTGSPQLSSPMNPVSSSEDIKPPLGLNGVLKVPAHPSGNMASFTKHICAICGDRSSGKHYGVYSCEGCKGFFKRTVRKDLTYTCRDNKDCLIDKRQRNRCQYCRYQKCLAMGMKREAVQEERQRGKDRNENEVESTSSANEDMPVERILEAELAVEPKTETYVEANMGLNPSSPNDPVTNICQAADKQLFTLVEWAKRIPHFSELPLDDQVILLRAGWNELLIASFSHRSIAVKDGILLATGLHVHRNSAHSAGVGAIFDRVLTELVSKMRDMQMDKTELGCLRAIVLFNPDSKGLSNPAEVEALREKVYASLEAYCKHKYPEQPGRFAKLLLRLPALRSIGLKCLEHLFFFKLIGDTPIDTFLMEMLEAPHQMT
T2 sequence (P43354 whole entry partner): as the sequence (P43354 whole entry partner) above
T2 sequence (P04386 1-147 partner limits assumed): as the sequence (P04386 1-147 partner limits assumed) above

Usually Emax stands for the greatest response seen or fitted, relative to the assay's reference. As usually defined, the EC50 is the concentration that produces a half-maximal response. Regarding `O=C(O)C1CN(c2cccc(N3c4ccc(C(F)(F)F)cc4C4CCCCC43)c2)C1` (stereo not drawn) [Example 144, 1-[3-[6-(trifluoromethyl)-1,2,3,4,4a,9a-hexahydrocarbazol-9-yl]phenyl]azetidine-3-carboxylic acid], in test [1], the maximal effect (Emax) is 105% and the EC50 was 24 nM. Besides, in test [2], the Emax worked out at 97% and the EC50 came out at 28 nM.
On the same counts, the results for `O=C(O)C1CN(c2cccc(-n3c(=O)n(CC4CCCC4)c4cc(C(F)(F)F)ccc43)c2)C1` [Example 149, 1-[3-[3-(cyclopetnylmethyl)-2-oxo-5-(trifluoromethyl)benzimidazol-1-yl]phenyl]azetidine-3-carboxylic acid] are 97%, 19 nM, 99% and 8 nM.
On the same counts, the results for `Cc1cn(-c2cccc(N3CC(C(=O)NS(=O)(=O)C(F)(F)F)C3)c2)c2ccc(C(F)(F)F)cc12` [Example 151, 1-[3-[3-methyl-5-(trifluoromethyl)indol-1-yl]phenyl]-N-(trifluoromethylsulfonyl)azetidine-3-carboxamide] are 73%, 7 nM, 95% and 4 nM.
Consider `Cc1cn(-c2cccc(N3CC(C(=O)NC(C)C)C3)c2)c2ccc(C(F)(F)F)cc12` [Example 152, N-isopropyl-1-[3-[3-methyl-5-(trifluoromethyl)indol-1-yl]phenyl]azetidine-3-carboxamide], for which the Emax in test [1] and in test [2] was 116% in each case. The EC50 in test [1] and in test [2] was 10 nM each time.
For `Cc1cn(-c2cccc(N3CC(C(=O)NCCN(C)C)C3)c2)c2ccc(C(F)(F)F)cc12` [Example 153, N-(2-dimethylaminoethyl)-1-[3-[3-methyl-5-(trifluoromethyl)indol-1-yl]phenyl]azetidine-3-carboxamide], in test [1], the Emax was 111% and the EC50 was determined as 455 nM. In test [2], the Emax stood at 87% and the concentration for a half-maximal effect (EC50) worked out at 181 nM.
For `Cc1cn(-c2cccc(N3CC(C(=O)NCCCCO)C3)c2)c2ccc(C(F)(F)F)cc12` [Example 156, N-(4-hydroxybutyl)-1-[3-[3-methyl-5-(trifluorometyl)indol-1-yl]phenyl]azetidine-3-carboxamide], in that order: 117%, 4 nM, 105% and 3 nM.
On the same counts, the results for `Cc1cn(-c2cccc(N3CC(C(=O)NCC(O)CO)C3)c2)c2ccc(C(F)(F)F)cc12` (stereo not drawn) [Example 157, N-(2,3-dihydroxypropyl)-1-[3-[3-methyl-5-(trifluoromethyl)indol-1-yl]phenyl]azetidine-3-carboxamide] are 114%, 6 nM, 120% and 3 nM.
Turning to `Cc1cn(-c2cccc(N3CC(C(=O)NC(CO)CO)C3)c2)c2ccc(C(F)(F)F)cc12` [Example 161, N-[2-hydroxy-1-(hydroxymethyl)ethyl]-1-[3-[3-methyl-5-(trifluoromethyl)indol-1yl]phenyl]azetidine-3-carboxamide], in test [1], the Emax came to 103% and the EC50 was determined as 23 nM. In addition, in test [2], the Emax was determined as 113% and the EC50 came to 9 nM.
On the same counts, the results for `Cc1cn(-c2cccc(N3CC(C(=O)NC4CCN(C)CC4)C3)c2)c2ccc(C(F)(F)F)cc12` [Example 162, N-(1-methyl-4-piperidyl)-1-[3-[3-methyl-5-(trifluromethyl)indol-1-yl]phenyl]azetidine-3-carboxamide] are 93%, 1380 nM, 100% and 823 nM.
For `Cc1cn(-c2cccc(N3CC(C(=O)NC4COC4)C3)c2)c2ccc(C(F)(F)F)cc12` [Example 163, 1-[3-[3-methyl-5-(trifluoromethyl)indol-1-yl]phenyl]-N-(oxetan-3-yl)azetidine-3-carboxamide], in that order: 125%, 9 nM, 123% and 7 nM.
On the same counts, the results for `Cc1cn(-c2cccc(N3CC(C(=O)NCCCN4CCNCC4)C3)c2)c2ccc(C(F)(F)F)cc12` [Example 164, 1-[3-[3-methyl-5-(trifluoromethyl)indol-1-yl]phenyl]-N-(3-piperazia-1-ylpropyl)azetidine-3-carboxamide] are 88%, 1650 nM, 85% and 723 nM.
Regarding `Cc1cn(-c2cccc(N3CC(C(=O)N(C)C)C3)c2)c2ccc(C(F)(F)F)cc12` [Example 165, N,N-dimethyl-1-[3-[3-methyl-5-(tirfluormethyl)indol-1-yl]phenyl]azetidine-3-carboxamide], the Emax was 108% in test [1] and 103% in test [2]. The values for the EC50 in test [1] and in test [2] were 20 nM and 15 nM, respectively.
For `Cc1cn(-c2cccc(N3CC(C(=O)NC4CCCC4)C3)c2)c2ccc(C(F)(F)F)cc12` [Example 166, N-cyclopetnyl-1-[3-[3-methyl-5-(trifluoromethyl)indol-1-yl]phenyl]azetidine-3-carboxamide], in that order: 113%, 104%, 41 nM and 25 nM.
In the case of `Cc1cn(-c2cccc(N3CC(C(=O)NCC(C)C)C3)c2)c2ccc(C(F)(F)F)cc12` [Example 167], in test [1], the Emax was determined as 131% and the EC50 amounted to 41 nM. For the same compound, in test [2], the Emax is 109% and the EC50 came to 25 nM.
Take `Cc1cn(-c2cccc(N3CC(C(=O)NCCO)C3)c2)c2ccc(C(F)(F)F)cc12` [Example 168]: in test [1], the Emax was 106% and the EC50 was < 1 nM. Also, in test [2], the Emax came to 102% and the EC50 was < 1 nM.
Consider `CCCCNC(=O)C1CN(c2cccc(-n3cc(C)c4cc(C(F)(F)F)ccc43)c2)C1` [Example 169, N-butyl-1-[3-[3-methyl-5-(trifluoromethyl)indol-1-yl]phenyl]azetidine-3-carboxamide], for which, in test [1], the Emax was 149% and the EC50 came to 26 nM. For the same compound, in test [2], the Emax was found to be 109% and the EC50 was found to be 13 nM.
On the same counts, the results for `Cc1cn(-c2cccc(N3CC(C(=O)NCCN4CCOCC4)C3)c2)c2ccc(C(F)(F)F)cc12` [Example 170, 1-[3-[3-methyl-5-(trifluoromethyl)indol-1-yl]phenyl]-N-(2-morpholinoethyl)azetidine-3-carboxamide] are 90%, 32 nM, 100% and 27 nM.
For `Cc1cn(-c2cccc(N3CC(C(=O)NC(C)(C)C)C3)c2)c2ccc(C(F)(F)F)cc12` [Example 171, N-tert-butyl-1-[3-[3-methyl-5-(tirfluoromethyl)indol-1-yl]phenyl]azetidine-3-carboxamide], in that order: 114%, 335 nM, 111% and 73 nM.
Regarding `COCCCNC(=O)C1CN(c2cccc(-n3cc(C)c4cc(C(F)(F)F)ccc43)c2)C1` [Example 172, N-(3-methoxvpypropyl)-1-[3-[3-methyl-5-(trifluoromethyl)indol-1-yl]phenyl]azetidine-3-carboxamide], the Emax in test [1] came out at 114%; in test [2] it was 104%. The EC50 in test [1] was 5 nM; in test [2], < 1 nM.
As for `Cc1cn(-c2cccc(N3CC(C(=O)NCCCN(C)C)C3)c2)c2ccc(C(F)(F)F)cc12` [Example 174, N-[3-(dimethylamino)propyl]-1-[3-[3-methyl-5-(trifluoromethyl)indol-1-yl]phenyl]-azetidine-3-carboxamide], the results for the Emax in test [1] and in test [2] were 95% and 91%, respectively. Besides, the results for the EC50 in test [1] and in test [2] were 620 nM and 341 nM, respectively.
On the same counts, the results for `Cc1cn(-c2cccc(N3CC(C(=O)NCCCCN(C)C)C3)c2)c2ccc(C(F)(F)F)cc12` [Example 175, N-[4-(dimethylamino)butyl]-1-[3-[3-methyl-5-(trifluoromethyl)indol-1yl]phenyl]-azatidine-3-carboxamide] are 84%, 77%, 1260 nM and 647 nM.
On the same counts, the results for `Cc1cn(-c2cccc(N3CC(C(=O)NCCN4CCNC4=O)C3)c2)c2ccc(C(F)(F)F)cc12` [Example 176, 1-[3-[3-methyl-5-(trifluoromethyl)indol-1-yl]-phenyl]N-[2-(2-oximidazolidin-1-yl)ethyl]azetidine-3-carboxamide] are 130%, 113%, 28 nM and 12 nM.
As for `Cc1cn(-c2cccc(N3CC(C(=O)NCC4CC4)C3)c2)c2ccc(C(F)(F)F)cc12` [Example 177, N-(cyclopropylmethyl)-1-[3-[3-methyl-5-(trifluoromethyl)indol-1-yl]phenyl]azetidine-3-carboxamide], in test [1], the Emax came to 109% and the EC50 came out at 10 nM. Besides, in test [2], the Emax is 104% and the EC50 came to 7 nM.
As to `Cc1cn(-c2cccc(N3CC(C(=O)NCC(F)(F)F)C3)c2)c2ccc(C(F)(F)F)cc12` [Example 178, 1-[3-[3-methyl-5-(trifluoromethyl)indol-1-yl]phenyl]-N-(2,2,2-trifluoromethyl)azetidine-3-carboxamide], in test [1], the Emax was determined as 133% and the EC50 turned out to be 146 nM. In test [2], the Emax turned out to be 115% and the EC50 was 14 nM.
